Measurements published in BigSolDB 2.1.

CCn1cc(C(=O)O)c(=O)c2cc(F)c(N3CCNCC3)cc21
in water
Details	solubility (mole fraction)
303.2 K	7.3e-06
308.2 K	9.1e-06
313.2 K	1.12e-05
318.2 K	1.37e-05
323.2 K	1.7e-05
328.2 K	2.05e-05

CCn1nc(C(=O)O)c(=O)c2cc3c(cc21)OCO3
Details	solubility (mole fraction)
in ethanol, 300.2 K	5e-05
in ethanol, 303.1 K	6e-05
in ethanol, 311.4 K	8e-05
in ethanol, 315.1 K	0.0001
in ethanol, 319.5 K	0.00011
in ethanol, 321.6 K	0.00013
in ethanol, 325.6 K	0.00015
in ethanol, 329.1 K	0.00018
in ethanol, 334 K	0.0002
in ethanol, 337.2 K	0.00024
in ethanol, 339.8 K	0.00028
in ethanol, 342.8 K	0.00031
in ethanol, 345.6 K	0.00037
in water, 298.2 K	4.2e-06
in water, 303.2 K	5e-06
in water, 308.2 K	5.4e-06
in water, 313.2 K	5.9e-06
in water, 318.2 K	7.1e-06
in water, 323.2 K	9.9e-06

CC1CCc2cc(F)cc3c(=O)c(C(=O)O)cn1c23 (stereo not given)
Details	solubility (mole fraction)
in ethanol, 301.9 K	0.00015
in ethanol, 309.9 K	0.00017
in ethanol, 315.2 K	0.00023
in ethanol, 320.7 K	0.00034
in ethanol, 328.7 K	0.00053
in ethanol, 331.7 K	0.00062
in ethanol, 335.5 K	0.00075
in ethanol, 339.1 K	0.00085
in ethanol, 340.5 K	0.00091
in ethanol, 342.1 K	0.00096
in ethanol, 344.2 K	0.00114
in ethanol, 345.5 K	0.0012
in water, 298.2 K	2.1e-05
in water, 303.2 K	2.3e-05
in water, 308.2 K	2.6e-05
in water, 313.2 K	2.8e-05
in water, 318.2 K	3.2e-05
in water, 323.2 K	3.8e-05

CCn1cc(C(=O)O)c(=O)c2cc(F)c(N3CCNC(C)C3)c(F)c21.Cl (stereo not given)
solubility (mole fraction)
Details	in ethanol	in water
296 K	–	0.00088
298.2 K	3e-05	0.0009
303.2 K	3.2e-05	–
308.2 K	3.8e-05	–
311.7 K	–	0.00099
313.2 K	4.1e-05	–
316.3 K	–	0.00104
318.2 K	4.4e-05	–
318.9 K	–	0.0011
320.5 K	–	0.00112
323.2 K	5e-05	–
328.3 K	–	0.00121
335.9 K	–	0.00129
338.7 K	–	0.00134
340.7 K	–	0.00138
344.2 K	–	0.00145
